Each compound was assayed against T1, Trp-p8 (Homo sapiens, UniProt Q7Z2W7, T58I) (assay: ATP viability assay with CHO/Trp-p8 cells at 37° C.). Settings: Table 1, Formula I-A; CHO/Trp-p8 cells, 24-26 hours at 37° C., 50% reduction in relative cell viability; read-out: EC50.
T1 construct: expressed in transfected cells; host or cells: CHO (Chinese Hamster Ovary) cells
Type: cell-based
Description: Human Trp-p8 transfected CHO cells (referred to herein as CHO/Trp-p8) were generated for use in experiments of the present invention. Expression of Trp-p8 polypeptide in this transfectant and the absence of any endogenous expression in the non-transfected CHO was confirmed by western blot and immunofluorescence using a Trp-p8 specific antibody (GS2.20) as well as the calcium flux assay with Icilin (1-[2-hydroxyphenyl]-4-[3-nitrophenyl]-1,2,3,6-tetrahydropyrimidine-2-one) and menthol (2-isopropyl-5-methyl-cyclohexanol). Non-transfected CHO cells were used to establish the specificity of the effects of the compounds observed with CHO/Trp-p8.
This Example discloses an ATP viability assay suitable for screening for effective Trp-p8 agonists. The ATP viability assay described herein employs CHO cells expressing an exogenous Trp-p8 cDNA. This example further establishes that Trp-p8 agonists of the present invention are effective in decreasing the viability of Trp-p8 expressing cells.
The concentration of intracellular ATP declines very rapidly when metabolically active cells undergo necrosis and/or apoptosis. The ATP concentration and consequently the relative cell viability can be measured by established methods using commercially available reagents. In the agonist screening methodology disclosed herein, a compound that specifically decreases the viability of CHO/Trp-p8 cells is referred to as an agonist.
As a primary screen for efficacy and specificity for agonists, both the non-transfected CHO and CHO/Trp-p8 cells were exposed to 1 or 10 μM of test compounds in 1% dimethylsulfoxide (DMSO) or 1% DMSO (control) in a 96-well black walled, black-bottomed, cell-culture treated plate. DMSO was the solvent for all of the compounds tested. After 24-26 hours at 37° C., the cells were lysed and ATP concentration determined via a chemiluminescence assay using a commercially available reagent kit—Cell Titer-Glo (Promega; Madison, Wis.). […] (EC50 is defined herein as the agonist concentration at which there is a 50% reduction in relative cell viability).

T1 sequence (Q7Z2W7 whole entry T58I): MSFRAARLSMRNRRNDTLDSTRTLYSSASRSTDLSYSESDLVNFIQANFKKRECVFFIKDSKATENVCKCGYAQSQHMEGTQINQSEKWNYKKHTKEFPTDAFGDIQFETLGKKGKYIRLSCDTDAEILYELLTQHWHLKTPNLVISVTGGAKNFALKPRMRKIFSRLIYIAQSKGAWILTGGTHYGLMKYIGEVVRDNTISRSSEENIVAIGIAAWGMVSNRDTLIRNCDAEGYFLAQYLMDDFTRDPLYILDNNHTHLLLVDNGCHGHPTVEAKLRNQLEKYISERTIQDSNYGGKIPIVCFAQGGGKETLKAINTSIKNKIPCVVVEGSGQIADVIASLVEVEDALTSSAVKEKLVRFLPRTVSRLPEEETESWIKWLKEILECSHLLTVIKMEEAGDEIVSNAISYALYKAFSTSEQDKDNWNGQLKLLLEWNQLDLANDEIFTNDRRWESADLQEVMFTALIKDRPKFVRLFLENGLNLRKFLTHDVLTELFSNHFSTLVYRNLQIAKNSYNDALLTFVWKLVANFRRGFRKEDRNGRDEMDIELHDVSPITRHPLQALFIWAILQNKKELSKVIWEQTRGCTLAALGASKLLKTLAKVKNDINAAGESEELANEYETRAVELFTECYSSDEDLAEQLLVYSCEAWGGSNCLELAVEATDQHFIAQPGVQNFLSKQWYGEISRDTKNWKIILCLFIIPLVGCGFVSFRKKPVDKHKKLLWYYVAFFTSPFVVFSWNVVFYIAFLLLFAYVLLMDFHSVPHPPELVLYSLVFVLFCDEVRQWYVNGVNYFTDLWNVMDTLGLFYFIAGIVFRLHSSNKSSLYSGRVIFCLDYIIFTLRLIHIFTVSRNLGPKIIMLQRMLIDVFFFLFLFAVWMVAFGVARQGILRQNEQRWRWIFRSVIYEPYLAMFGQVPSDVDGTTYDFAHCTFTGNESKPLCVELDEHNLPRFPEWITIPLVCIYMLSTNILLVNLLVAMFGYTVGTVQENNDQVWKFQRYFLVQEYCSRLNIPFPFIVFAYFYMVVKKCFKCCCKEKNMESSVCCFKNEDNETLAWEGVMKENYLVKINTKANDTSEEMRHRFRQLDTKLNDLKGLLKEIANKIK

Compound	EC50
COc1ccc(NC(=O)[C@@H]2C[C@H](C)CC[C@H]2C(C)C)c(NC(=O)[C@@H](N)CO)c1 [Compound 10]	21 to 50 nM
CC[C@@H](N)C(=O)Nc1cc(OC)ccc1NC(=O)[C@@H]1C[C@H](C)CC[C@H]1C(C)C [Compound 6]	21 to 50 nM
CSc1ccc(NC(=O)[C@@H]2C[C@H](C)CC[C@H]2C(C)C)c(C(=O)NCCN)c1 [Compound 2]	< 20 nM
COc1ccc(NC(=O)[C@@H]2C[C@H](C)CC[C@H]2C(C)C)c(NC(=O)CN)c1 [Compound 13]	51 to 100 nM
COc1ccc(NC(=O)[C@@H]2C[C@H](C)CC[C@H]2C(C)C)c(NC(=O)[C@H](N)CO)c1 [Compound 7]	21 to 50 nM
COc1ccc(NC(=O)[C@@H]2C[C@H](C)CC[C@H]2C(C)C)c(NC(=O)[C@H](N)[C@H](C)O)c1 [Compound 12]	51 to 100 nM
CC(C)[C@@H]1CC[C@@H](C)C[C@H]1C(=O)Nc1ccccc1C(=O)NCCN [Compound 9]	21 to 50 nM
CC(C)[C@@H]1CC[C@@H](C)C[C@H]1C(=O)Nc1ccccc1NC(=O)CN [Compound 11]	51 to 100 nM

Same assay, conditions: Table 2, Formula I-B; CHO/Trp-p8 cells, 24-26 hours at 37° C., 50% reduction in relative cell viability; read-out: EC50

Compound	EC50
CC(C)[C@@H]1CC[C@@H](C)C[C@H]1C(=O)Nc1cc(-c2ccco2)nn1CCN [Compound 14, 2-Isopropyl-5-methyl-cyclohexane carboxylic acid-[2-(2-amino-ethyl)-5-furan-2-yl-2H-pyrazol-3-yl]-amide]	< 20 nM
CC(C)[C@@H]1CC[C@@H](C)C[C@H]1C(=O)Nc1cc(-c2ccccc2)nn1C[C@H](C)N [Compound 22]	21 to 50 nM
CNCCn1nc(-c2ccccc2)cc1NC(=O)[C@@H]1C[C@H](C)CC[C@H]1C(C)C [Compound 21]	21 to 50 nM
CC(C)[C@@H]1CC[C@@H](C)C[C@H]1C(=O)Nc1cc(-c2cccc(C#N)c2)nn1CCN [Compound 23]	21 to 50 nM
COc1cccc(-c2cc(NC(=O)[C@@H]3C[C@H](C)CC[C@H]3C(C)C)n(CCN)n2)c1 [Compound 24]	21 to 50 nM
CC(C)[C@@H]1CC[C@@H](C)C[C@H]1C(=O)Nc1cc(-c2cccc(O)c2)nn1CCN [Compound 27]	51 to 100 nM
CC(C)[C@@H]1CC[C@@H](C)C[C@H]1C(=O)Nc1cc(-c2ccc(O)cc2)nn1CCN [Compound 20]	21 to 50 nM
CC(C)[C@@H]1CC[C@@H](C)C[C@H]1C(=O)Nc1cc(-c2cccn2C)nn1CCN [Compound 17, 2-Isopropyl-5-methyl-cyclohexane carboxylic acid-[2-(2-amino-ethyl)-5-(1-methyl-1H-pyrrol-2-yl)-2H-pyrazol-3-yl]-amide]	< 20 nM

Same assay, conditions: Table 3, Formula I-C; CHO/Trp-p8 cells, 24-26 hours at 37° C., 50% reduction in relative cell viability; read-out: EC50

Compound	EC50
CC(C)[C@@H]1CC[C@@H](C)C[C@H]1C(=O)NCC(NC(=O)[C@@H](C)N)c1ccccc1 (stereo in doubt) [Compound 28, 2-Isopropyl-5-methyl-cyclohexanecarboxylic acid [2-(2-amino-propionylamino)-2-phenyl-ethyl]-amide]	< 20 nM
CC(C)[C@@H]1CC[C@@H](C)C[C@H]1C(=O)NC[C@@H](OCCN)c1ccccc1 [Compound 29]	< 20 nM
CC(C)[C@@H]1CC[C@@H](C)C[C@H]1C(=O)NCC(OCCN)c1ccccc1 (some centres unmarked) [Compound 30, 2-Isopropyl-5-methyl-cyclohexanecarboxylic[2-(2-amino-4-ethoxy)-2-phenyl-ethyl]-amide]	< 20 nM
CC(C)[C@@H]1CC[C@@H](C)C[C@H]1C(=O)NCC(OCCCN)c1ccccc1 (some centres unmarked) [Compound 31, 2-Isopropyl-5-methyl-cyclohexanecarboxylic[2-(3-amino-4-propoxy)-2-phenyl-ethyl]-amide]	21 to 50 nM

Same assay, conditions: Table 4, Formula I-D; CHO/Trp-p8 cells, 24-26 hours at 37° C., 50% reduction in relative cell viability; read-out: EC50

Compound	EC50
CC(C)[C@@H]1CC[C@@H](C)C[C@H]1C(=O)NCCc1ccccc1NCCN [Compound 33, 2-Isopropyl-5-methyl-cyclohexanecarboxylic acid {2-[2-(2-amino-ethylamino)-phenyl]-ethyl}-amide]	< 20 nM
CC(C)[C@@H]1CC[C@@H](C)C[C@H]1C(=O)NCCN(C(=O)CN)c1ccccc1 [Compound 35]	21 to 50 nM

Same assay, conditions: Table 5, Formula I-E; CHO/Trp-p8 cells, 24-26 hours at 37° C., 50% reduction in relative cell viability; read-out: EC50

Compound	EC50
CC(C)[C@@H]1CC[C@@H](C)C[C@H]1C(=O)n1c(=O)n(CCN)c2ccccc21 [Compound 50, 1-(2-Aminoethyl)-3-(2-isopropyl-5-methylcyclohexanecarbonyl)-1,3-dihydro-benzoimidazol-2-one]	< 20 nM
CC(C)[C@@H]1CC[C@@H](C)C[C@H]1C(=O)n1c(=O)n(CCN)c2cc(S(C)(=O)=O)ccc21 [Compound 39]	< 20 nM
CSc1ccc2c(c1)n(CCN)c(=O)n2C(=O)[C@@H]1C[C@H](C)CC[C@H]1C(C)C [Compound 42, 3-(2-Amino-ethyl)-1-(2-isopropyl-5-methyl-cyclohexanecarbonyl)-5-methylsulfanyl-1,3-dihydro-benzoimidazol-2-one]	< 20 nM
CC(C)[C@@H]1CC[C@@H](C)C[C@H]1C(=O)n1c(=O)n(CCN)c2cc(C(=O)NC(CO)CO)ccc21 [Compound 74]	51 to 100 nM
CC(C)[C@@H]1CC[C@@H](C)C[C@H]1C(=O)n1c(=O)n(CCN)c2cc(C(=O)NCCc3ccccc3)ccc21 [Compound 71]	51 to 100 nM
CC(C)[C@@H]1CC[C@@H](C)C[C@H]1C(=O)n1c(=O)n(CCN)c2cc(OCc3ccccc3)ccc21 [Compound 75]	51 to 100 nM
CCN(CC)CCNC(=O)c1cccc2c1n(CCN)c(=O)n2C(=O)[C@@H]1C[C@H](C)CC[C@H]1C(C)C [Compound 55]	21 to 50 nM
CC(C)[C@@H]1CC[C@@H](C)C[C@H]1C(=O)n1c(=O)n(CCN)c2cc(OCCO)ccc21 [Compound 40, 3-(2-aminoethyl)-5-(2-hydroxyethoxy)-1-(2-isopropyl-5-methylcyclohexanecarbonyl)-1,3-dihydro-benzoimidazol-2-one]	< 20 nM
CCNC(=O)c1ccc2c(c1)n(CCN)c(=O)n2C(=O)[C@@H]1C[C@H](C)CC[C@H]1C(C)C (stereo in doubt) [Compound 47, 3-(2-Amino-ethyl)-1-(2-isopropyl-5-methylcyclohexanecarbonyl)-2-oxo-2,3-dihydro-1H-benzoimidazole-5-carboxylic acid ethyl amide]	< 20 nM
CC(C)[C@@H]1CC[C@@H](C)C[C@H]1C(=O)n1c(=O)n(CCN)c2cc(C(=O)NCC(N)=O)ccc21 [Compound 73]	51 to 100 nM
CCOC(=O)N1CCN(C(=O)c2ccc3c(c2)n(CCN)c(=O)n3C(=O)[C@@H]2C[C@H](C)CC[C@H]2C(C)C)CC1 [Compound 69]	51 to 100 nM
CCN(CC)CCNC(=O)c1ccc2c(c1)n(CCN)c(=O)n2C(=O)[C@@H]1C[C@H](C)CC[C@H]1C(C)C [Compound 44, 3-(2-Amino-ethyl)-1-(2-isopropyl-5-methylcyclohexanecarbonyl)-2-oxo-2,3-dihydro-1H-benzoimidazole-5-carboxylic acid (2-diethylamino-ethyl)amide]	< 20 nM
CNCCn1c(=O)n(C(=O)[C@@H]2C[C@H](C)CC[C@H]2C(C)C)c2ccccc21 [Compound 66]	21 to 50 nM
CC(C)[C@@H]1CC[C@@H](C)C[C@H]1C(=O)n1c(=O)n(CCN)c2ccncc21 [Compound 62]	21 to 50 nM
CCCCOc1ccc2c(c1)n(CCN)c(=O)n2C(=O)[C@@H]1C[C@H](C)CC[C@H]1C(C)C [Compound 67]	51 to 100 nM
CC(C)[C@@H]1CC[C@@H](C)C[C@H]1C(=O)n1c(=O)n(C[C@@H](C)N)c2ccccc21 [Compound 45, 1-(2-Amino-2-(R)-methylethyl)-3-(2-isopropyl-5-methylcyclohexanecarbonyl)-1,3-dihydro-benzoimidazol-2-one]	< 20 nM
CC(C)[C@@H]1CC[C@@H](C)C[C@H]1C(=O)n1c(=O)n(CCN)c2cc(C(=O)N[C@@H](CO)[C@@H](O)c3ccccc3)ccc21 [Compound 72]	51 to 100 nM
C#CCOc1ccc2c(c1)n(CCN)c(=O)n2C(=O)[C@@H]1C[C@H](C)CC[C@H]1C(C)C [Compound 46]	< 20 nM
CC(C)[C@@H]1CC[C@@H](C)C[C@H]1C(=O)n1c(=O)n(CCN)c2cc(OCC(=O)c3ccccc3)ccc21 [Compound 65]	21 to 50 nM
CCN(CC)C(=O)c1ccc2c(c1)n(CCN)c(=O)n2C(=O)[C@@H]1C[C@H](C)CC[C@H]1C(C)C [Compound 70]	51 to 100 nM
COc1ccc2c(c1)n(CCN)c(=O)n2C(=O)[C@@H]1C[C@H](C)CC[C@H]1C(C)C [Compound 36, 3-(2-Aminoethyl)-1-(2-isopropyl-5-methylcyclohexanecarbonyl)-5-methoxy-1,3-dihydro-benzoimidazol-2-one]	< 20 nM
COCCNC(=O)c1ccc2c(c1)n(CCN)c(=O)n2C(=O)[C@@H]1C[C@H](C)CC[C@H]1C(C)C [Compound 49]	< 20 nM

From patent US7741355B2, “Small-molecule modulators of TRP-p8 activity” (Dendreon Corporation, priority 2006, dated 2010)
